Results: paper PMC5639204, “Structures of Leishmania Fructose-1,6-Bisphosphatase Reveal Species-Specific Differences in the Mechanism of Allosteric Inhibition” (Journal of Molecular Biology, 2017)

Experiments:
[1] = target: T1, fructose-1,6-bisphosphatase (LmFBPase) (Leishmania major, UniProt O97193); assay: co-crystal structure ([…] Å) with F6P; coupled enzyme assay Ki; type: biochemical; set-up: gene FBP; C-terminal His6-tagged LmFBPase, homotetramer
T1 sequence (O97193 1-351): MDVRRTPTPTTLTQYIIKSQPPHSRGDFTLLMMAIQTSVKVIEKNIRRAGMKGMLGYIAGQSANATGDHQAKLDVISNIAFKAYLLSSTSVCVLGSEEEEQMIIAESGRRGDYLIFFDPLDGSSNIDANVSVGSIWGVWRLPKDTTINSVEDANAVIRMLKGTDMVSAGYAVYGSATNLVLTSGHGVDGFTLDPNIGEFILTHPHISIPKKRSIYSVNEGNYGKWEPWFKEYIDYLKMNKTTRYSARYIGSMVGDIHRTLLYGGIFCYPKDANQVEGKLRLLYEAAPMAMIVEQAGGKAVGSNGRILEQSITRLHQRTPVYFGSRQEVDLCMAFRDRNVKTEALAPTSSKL

[2] = target: T2, fructose-1,6-bisphosphatase (LmFBPase) (Leishmania major, UniProt O97193); assay: PGI/G6PDH coupled enzyme activity assay; type: biochemical
T2 construct: gene FBP; C-terminal His6-tagged LmFBPase

[3] = target: T1, fructose-1,6-bisphosphatase (LmFBPase); assay: co-crystal structure ([…] Å) with AMP; thermal shift; type: binding; set-up: gene FBP; C-terminal His6-tagged LmFBPase, homotetramer
[4] = target: T1, fructose-1,6-bisphosphatase (LmFBPase); set-up: gene FBP

Nc1ncnc2c1ncn2[C@@H]1O[C@H](COP(=O)(O)O)[C@@H](O)[C@H]1O [AMP]
Ki [1]: 63.8 µM

O=P(O)(O)OC[C@H]1O[C@@](CO)(OP(=O)(O)O)[C@@H](O)[C@@H]1O [Fructose 2,6-bisphosphate]
Ki [2]: 1.9 µM

O=P(O)(O)OC[C@H]1OC(O)(CO)[C@@H](O)[C@@H]1O (stereo partly shown) [fructose 6-phosphate]
co-crystal structure (2.62 Å) with AMP; thermal shift [3]: The catalytic product F6P was found in each of the active sites of the four subunits

O=P(O)(O)O [phosphate]
co-crystal structure (2.8 Å) with Mn2+ [4]: a catalytic product Pi and manganese atoms were found in each active site
